Measured values: ChEMBL document CHEMBL5291721, “A preclinical secondary pharmacology resource illuminates target-adverse drug reaction associations of marketed drugs” (Nat Commun, 2023)
Where a SMILES comes first, the peptide text is derived from it. [ ]: non-standard residue; d: D form. pGlu = O=C1CC[C@@H](C(=O)O)N1; Thz = O=C(O)[C@@H]1CSCN1

Assays:
[1] = target: Delta-type opioid receptor (Homo sapiens, UniProt P41143)
[2] = target: Neuronal acetylcholine receptor subunit alpha-4 (Homo sapiens, UniProt P43681)
Neuronal acetylcholine receptor subunit alpha-4, sequence (P43681 whole entry): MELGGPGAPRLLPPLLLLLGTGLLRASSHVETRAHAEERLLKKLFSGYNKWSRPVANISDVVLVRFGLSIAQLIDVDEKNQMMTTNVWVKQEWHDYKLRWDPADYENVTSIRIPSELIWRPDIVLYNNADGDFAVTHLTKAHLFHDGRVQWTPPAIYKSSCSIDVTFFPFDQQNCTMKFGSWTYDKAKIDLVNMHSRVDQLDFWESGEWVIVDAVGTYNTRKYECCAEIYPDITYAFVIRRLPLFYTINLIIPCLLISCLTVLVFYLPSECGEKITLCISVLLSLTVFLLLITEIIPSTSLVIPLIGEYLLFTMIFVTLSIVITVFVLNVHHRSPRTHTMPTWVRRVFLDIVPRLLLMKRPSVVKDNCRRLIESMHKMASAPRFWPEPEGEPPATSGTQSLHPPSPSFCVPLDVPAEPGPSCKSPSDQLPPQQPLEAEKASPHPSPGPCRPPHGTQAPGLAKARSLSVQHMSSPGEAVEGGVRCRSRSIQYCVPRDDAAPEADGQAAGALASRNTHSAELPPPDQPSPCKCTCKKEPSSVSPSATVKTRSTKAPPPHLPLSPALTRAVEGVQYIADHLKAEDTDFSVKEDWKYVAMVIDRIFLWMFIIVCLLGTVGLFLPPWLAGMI

[3] = target: T1, Prostaglandin G/H synthase 1 (Rattus norvegicus, UniProt Q63921); type: functional
T1 sequence (Q63921 whole entry): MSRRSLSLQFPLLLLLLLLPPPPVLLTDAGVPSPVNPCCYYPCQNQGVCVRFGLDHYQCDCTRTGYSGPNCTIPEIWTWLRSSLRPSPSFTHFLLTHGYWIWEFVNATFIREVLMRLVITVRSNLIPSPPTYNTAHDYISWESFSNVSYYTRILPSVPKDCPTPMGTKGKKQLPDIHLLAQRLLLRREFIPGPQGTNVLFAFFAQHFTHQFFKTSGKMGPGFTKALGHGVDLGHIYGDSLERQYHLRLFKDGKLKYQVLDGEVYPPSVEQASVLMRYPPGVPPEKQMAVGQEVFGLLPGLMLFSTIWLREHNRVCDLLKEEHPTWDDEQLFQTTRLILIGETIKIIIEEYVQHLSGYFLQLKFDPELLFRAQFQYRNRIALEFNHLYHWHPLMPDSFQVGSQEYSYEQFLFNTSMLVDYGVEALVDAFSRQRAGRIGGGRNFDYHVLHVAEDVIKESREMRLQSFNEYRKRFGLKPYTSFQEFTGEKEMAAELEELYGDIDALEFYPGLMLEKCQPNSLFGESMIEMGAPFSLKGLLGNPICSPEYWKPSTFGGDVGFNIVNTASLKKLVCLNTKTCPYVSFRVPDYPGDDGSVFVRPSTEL

[4] = target: Growth hormone secretagogue receptor type 1 (Homo sapiens, UniProt Q92847)
Growth hormone secretagogue receptor type 1, sequence (Q92847 whole entry): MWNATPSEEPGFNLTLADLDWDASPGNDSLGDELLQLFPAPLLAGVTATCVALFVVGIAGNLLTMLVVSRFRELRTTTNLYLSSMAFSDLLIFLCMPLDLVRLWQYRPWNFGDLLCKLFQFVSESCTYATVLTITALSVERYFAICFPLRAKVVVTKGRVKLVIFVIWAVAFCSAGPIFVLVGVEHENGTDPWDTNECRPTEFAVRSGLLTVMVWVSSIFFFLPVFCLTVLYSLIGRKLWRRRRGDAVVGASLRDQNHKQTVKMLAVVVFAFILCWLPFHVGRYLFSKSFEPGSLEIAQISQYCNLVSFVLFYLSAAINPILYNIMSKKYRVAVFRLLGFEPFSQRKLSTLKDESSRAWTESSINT

D(1A) dopamine receptor = D(1A) dopamine receptor (Homo sapiens, UniProt P21728); type: functional, cell-based
[5] = target: 3',5'-cyclic-AMP phosphodiesterase 4D (Homo sapiens, UniProt Q08499); type: functional
3',5'-cyclic-AMP phosphodiesterase 4D, sequence (Q08499 whole entry): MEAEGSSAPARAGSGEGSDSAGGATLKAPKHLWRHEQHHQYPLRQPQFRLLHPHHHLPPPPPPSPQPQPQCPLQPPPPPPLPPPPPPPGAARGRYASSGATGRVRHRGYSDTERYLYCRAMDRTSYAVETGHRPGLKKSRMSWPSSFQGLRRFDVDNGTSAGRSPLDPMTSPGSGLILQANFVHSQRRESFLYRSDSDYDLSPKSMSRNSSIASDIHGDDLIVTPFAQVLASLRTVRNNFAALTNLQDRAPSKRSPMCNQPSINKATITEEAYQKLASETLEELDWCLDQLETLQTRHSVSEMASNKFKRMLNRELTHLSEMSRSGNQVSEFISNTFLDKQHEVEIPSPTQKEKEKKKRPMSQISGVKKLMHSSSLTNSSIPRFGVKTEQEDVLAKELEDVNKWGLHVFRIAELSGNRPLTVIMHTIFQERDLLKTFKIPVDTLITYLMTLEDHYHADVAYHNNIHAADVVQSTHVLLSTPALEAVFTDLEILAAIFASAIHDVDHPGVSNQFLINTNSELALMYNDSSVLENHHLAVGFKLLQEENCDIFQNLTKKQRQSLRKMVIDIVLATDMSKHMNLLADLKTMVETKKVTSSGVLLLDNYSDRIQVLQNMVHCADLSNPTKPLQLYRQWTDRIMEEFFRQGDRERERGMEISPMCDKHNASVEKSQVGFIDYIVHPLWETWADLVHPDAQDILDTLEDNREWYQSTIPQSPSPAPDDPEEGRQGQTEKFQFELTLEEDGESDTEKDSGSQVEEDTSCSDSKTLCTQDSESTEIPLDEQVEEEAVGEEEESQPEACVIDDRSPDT

B2 bradykinin receptor = target: T2, B2 bradykinin receptor (Homo sapiens, UniProt P30411)
T2 sequence (P30411 whole entry): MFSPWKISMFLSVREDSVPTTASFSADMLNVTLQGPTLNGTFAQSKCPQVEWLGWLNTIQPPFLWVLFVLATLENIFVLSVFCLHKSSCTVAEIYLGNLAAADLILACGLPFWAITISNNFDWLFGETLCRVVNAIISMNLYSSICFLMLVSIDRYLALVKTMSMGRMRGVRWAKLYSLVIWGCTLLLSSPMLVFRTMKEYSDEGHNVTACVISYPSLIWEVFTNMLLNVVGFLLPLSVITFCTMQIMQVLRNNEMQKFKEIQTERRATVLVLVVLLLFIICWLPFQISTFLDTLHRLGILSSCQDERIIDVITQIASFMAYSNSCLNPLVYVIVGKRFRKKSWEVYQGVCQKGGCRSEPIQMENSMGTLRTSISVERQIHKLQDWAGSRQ

[6] = target: Voltage-dependent L-type calcium channel subunit alpha-1C (Rattus norvegicus, UniProt P22002); type: functional
Voltage-dependent L-type calcium channel subunit alpha-1C, sequence (P22002 whole entry): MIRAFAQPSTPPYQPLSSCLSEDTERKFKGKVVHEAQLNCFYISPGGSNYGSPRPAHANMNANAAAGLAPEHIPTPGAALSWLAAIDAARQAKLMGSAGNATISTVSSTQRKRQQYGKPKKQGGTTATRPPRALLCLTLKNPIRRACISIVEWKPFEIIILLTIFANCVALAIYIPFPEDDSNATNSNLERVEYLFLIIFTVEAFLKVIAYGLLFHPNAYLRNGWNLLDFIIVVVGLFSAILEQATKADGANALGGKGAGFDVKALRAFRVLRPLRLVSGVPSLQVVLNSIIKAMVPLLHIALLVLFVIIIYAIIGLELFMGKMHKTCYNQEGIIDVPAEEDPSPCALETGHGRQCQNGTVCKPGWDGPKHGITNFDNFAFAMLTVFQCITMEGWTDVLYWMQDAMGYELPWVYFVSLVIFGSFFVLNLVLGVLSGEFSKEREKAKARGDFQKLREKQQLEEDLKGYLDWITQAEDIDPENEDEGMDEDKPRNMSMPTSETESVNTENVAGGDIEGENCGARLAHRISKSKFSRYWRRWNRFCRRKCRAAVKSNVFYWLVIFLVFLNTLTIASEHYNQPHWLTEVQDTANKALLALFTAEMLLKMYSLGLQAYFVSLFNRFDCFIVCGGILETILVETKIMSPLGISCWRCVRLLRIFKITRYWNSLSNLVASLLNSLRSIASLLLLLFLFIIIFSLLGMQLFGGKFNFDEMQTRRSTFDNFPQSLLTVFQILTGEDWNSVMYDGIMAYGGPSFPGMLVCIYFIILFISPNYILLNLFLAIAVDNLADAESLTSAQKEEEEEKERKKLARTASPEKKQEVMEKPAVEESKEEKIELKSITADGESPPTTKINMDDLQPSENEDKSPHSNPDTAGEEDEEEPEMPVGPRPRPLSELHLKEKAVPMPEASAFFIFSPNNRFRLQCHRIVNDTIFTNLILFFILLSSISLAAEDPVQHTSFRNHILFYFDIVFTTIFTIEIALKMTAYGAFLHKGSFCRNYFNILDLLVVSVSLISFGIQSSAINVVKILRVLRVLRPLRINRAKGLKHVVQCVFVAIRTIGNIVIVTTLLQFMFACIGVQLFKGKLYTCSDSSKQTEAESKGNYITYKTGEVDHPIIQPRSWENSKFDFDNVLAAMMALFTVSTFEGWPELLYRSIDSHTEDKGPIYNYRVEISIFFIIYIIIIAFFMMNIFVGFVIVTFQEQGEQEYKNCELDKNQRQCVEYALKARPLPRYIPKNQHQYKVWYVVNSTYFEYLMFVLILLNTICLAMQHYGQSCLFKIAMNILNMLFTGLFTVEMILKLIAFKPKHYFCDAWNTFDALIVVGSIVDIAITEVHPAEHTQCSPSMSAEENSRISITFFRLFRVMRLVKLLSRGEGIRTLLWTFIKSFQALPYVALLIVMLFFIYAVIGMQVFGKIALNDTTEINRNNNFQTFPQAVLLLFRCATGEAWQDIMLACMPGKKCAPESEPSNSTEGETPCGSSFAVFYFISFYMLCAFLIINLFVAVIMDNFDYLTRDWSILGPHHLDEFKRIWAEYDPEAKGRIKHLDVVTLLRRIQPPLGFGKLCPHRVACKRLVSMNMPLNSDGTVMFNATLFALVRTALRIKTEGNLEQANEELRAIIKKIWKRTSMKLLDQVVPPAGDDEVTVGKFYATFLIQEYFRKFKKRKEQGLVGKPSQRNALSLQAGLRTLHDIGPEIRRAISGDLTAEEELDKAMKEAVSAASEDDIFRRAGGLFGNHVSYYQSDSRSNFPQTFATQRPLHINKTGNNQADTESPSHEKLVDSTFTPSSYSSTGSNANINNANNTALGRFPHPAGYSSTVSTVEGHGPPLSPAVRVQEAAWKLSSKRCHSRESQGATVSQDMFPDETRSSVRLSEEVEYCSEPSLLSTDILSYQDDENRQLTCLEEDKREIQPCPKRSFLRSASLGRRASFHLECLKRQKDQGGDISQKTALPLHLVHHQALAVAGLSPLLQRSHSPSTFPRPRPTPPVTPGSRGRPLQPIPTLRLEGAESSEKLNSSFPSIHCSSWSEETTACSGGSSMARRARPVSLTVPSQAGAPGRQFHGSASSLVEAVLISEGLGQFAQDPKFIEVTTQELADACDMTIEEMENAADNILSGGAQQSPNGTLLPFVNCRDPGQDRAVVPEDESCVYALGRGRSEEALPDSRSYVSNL

[7] = target: T3, Gastrin/cholecystokinin type B receptor (Homo sapiens, UniProt P32239)
T3 sequence (P32239 whole entry): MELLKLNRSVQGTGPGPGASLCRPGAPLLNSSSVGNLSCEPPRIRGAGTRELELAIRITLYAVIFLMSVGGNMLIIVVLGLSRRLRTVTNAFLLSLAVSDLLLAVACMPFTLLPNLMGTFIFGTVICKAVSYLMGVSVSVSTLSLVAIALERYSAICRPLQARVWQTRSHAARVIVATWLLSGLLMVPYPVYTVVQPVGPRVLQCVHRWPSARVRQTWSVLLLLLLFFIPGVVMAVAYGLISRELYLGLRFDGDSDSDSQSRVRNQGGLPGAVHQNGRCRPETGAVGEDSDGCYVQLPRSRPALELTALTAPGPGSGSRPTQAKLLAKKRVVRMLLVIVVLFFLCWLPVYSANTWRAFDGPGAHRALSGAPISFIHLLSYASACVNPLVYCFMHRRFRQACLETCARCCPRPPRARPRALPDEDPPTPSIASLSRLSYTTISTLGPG

[8] = target: T4, Alpha-2C adrenergic receptor (Homo sapiens, UniProt P18825); type: functional
T4 sequence (P18825 whole entry): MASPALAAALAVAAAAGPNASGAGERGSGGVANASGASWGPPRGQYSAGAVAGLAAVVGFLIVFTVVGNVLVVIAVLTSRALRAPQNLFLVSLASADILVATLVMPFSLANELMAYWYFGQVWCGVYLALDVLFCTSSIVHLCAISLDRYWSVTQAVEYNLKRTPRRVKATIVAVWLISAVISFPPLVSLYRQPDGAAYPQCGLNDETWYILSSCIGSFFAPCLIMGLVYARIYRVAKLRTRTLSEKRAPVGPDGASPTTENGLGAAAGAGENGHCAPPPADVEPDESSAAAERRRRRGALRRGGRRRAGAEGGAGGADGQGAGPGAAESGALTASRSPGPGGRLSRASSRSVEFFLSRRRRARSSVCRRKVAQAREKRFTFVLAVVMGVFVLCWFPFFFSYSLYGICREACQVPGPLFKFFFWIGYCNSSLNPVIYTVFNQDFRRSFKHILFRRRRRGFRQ

[9] = target: T5, Alpha-2A adrenergic receptor (Homo sapiens, UniProt P08913); type: functional, cell-based
T5 sequence (P08913 whole entry): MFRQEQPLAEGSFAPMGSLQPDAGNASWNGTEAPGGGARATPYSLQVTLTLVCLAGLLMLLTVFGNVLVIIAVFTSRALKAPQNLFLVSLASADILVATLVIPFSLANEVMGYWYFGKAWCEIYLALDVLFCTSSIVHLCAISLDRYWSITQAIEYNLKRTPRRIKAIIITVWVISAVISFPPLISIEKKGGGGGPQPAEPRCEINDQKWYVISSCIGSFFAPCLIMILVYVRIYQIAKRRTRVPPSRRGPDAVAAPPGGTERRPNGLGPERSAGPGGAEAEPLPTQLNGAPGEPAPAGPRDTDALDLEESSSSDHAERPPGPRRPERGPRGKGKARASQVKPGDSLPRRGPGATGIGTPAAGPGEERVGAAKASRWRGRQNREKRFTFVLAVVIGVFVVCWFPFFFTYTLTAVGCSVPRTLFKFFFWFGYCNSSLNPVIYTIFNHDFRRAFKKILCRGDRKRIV

Melanocortin receptor 3 = Melanocortin receptor 3 (Homo sapiens, UniProt P41968)
Melanocortin receptor 3, sequence (P41968 whole entry): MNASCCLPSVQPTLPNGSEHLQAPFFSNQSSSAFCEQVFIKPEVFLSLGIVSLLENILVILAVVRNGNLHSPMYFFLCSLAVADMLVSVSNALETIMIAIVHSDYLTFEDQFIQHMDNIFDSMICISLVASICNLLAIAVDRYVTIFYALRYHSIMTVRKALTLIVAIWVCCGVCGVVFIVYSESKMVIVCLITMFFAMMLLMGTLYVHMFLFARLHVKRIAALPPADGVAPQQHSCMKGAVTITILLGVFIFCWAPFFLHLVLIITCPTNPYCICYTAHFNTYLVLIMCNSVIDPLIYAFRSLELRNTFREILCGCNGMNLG

[10] = target: 5-hydroxytryptamine receptor 2B (Homo sapiens, UniProt P41595); type: functional, cell-based
5-hydroxytryptamine receptor 2B, sequence (P41595 whole entry): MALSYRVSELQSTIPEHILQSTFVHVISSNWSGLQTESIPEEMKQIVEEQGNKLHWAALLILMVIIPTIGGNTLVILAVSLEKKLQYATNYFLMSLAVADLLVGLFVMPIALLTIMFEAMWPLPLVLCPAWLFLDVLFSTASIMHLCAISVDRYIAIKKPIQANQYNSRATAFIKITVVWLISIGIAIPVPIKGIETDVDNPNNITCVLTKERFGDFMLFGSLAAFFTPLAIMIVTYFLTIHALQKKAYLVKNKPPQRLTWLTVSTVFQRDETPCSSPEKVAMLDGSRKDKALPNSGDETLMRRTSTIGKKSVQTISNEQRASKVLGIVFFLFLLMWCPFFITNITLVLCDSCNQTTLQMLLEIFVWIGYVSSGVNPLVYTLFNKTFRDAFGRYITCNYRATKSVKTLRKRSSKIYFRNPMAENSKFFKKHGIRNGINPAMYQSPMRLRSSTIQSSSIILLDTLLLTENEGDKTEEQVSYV
Note: assay procedure not described here.

SMILES	AC50 [1] [µM]	AC50 [2] [µM]	AC50 [3] [µM]	AC50 [4] [µM]	AC50 (D(1A) dopamine receptor) [µM]	AC50 [5] [µM]	AC50 (B2 bradykinin receptor) [µM]	AC50 [6] [µM]	AC50 [7] [µM]	AC50 [8] [µM]	AC50 [9] [µM]	AC50 (Melanocortin receptor 3) [µM]	AC50 [10] [µM]
CCc1cc2c(s1)-n1c(C)nnc1CN=C2c1ccccc1Cl [ETIZOLAM]	> 30	> 30	> 30	> 30	> 30	19	> 30	> 30	> 30	> 30	> 30	> 30	> 30
CCOC(=O)c1ncn2c1CN(C)C(=O)c1cc(F)ccc1-2 [FLUMAZENIL]	> 30	> 30	> 30	> 30	> 30	> 30	> 30	> 30	> 30	> 30	> 30	> 30	> 30
CC/C=C\C/C=C\C/C=C\C/C=C\C/C=C\CCCC(=O)OCC [ICOSAPENT ETHYL]	> 30	> 30	2.4	> 30	> 30	12	> 30	> 30	> 30	> 30	> 30	> 30	> 30
NNC(=O)c1ccncc1 [ISONIAZID]	> 30	> 30	> 30	> 30	> 30	> 30	> 30	> 30	> 30	> 30	> 30	> 30	> 30
COc1ccc(CN2CCN(C(c3ccc(F)cc3)c3ccc(F)cc3)CC2)c(OC)c1OC [LOMERIZINE]	> 30	> 30	> 30	27	> 30	> 30	> 30	2.4	> 30	4.2	> 30	> 30	5.9
O=C1Nc2ccc(Cl)cc2C(c2ccccc2Cl)=NC1O (configuration not stated) [LORAZEPAM]	> 30	> 10	> 30	> 30	> 30	> 30	> 30	> 10	> 30	> 10	> 10	> 30	> 10
CN1CCN=C(c2ccccc2)c2cc(Cl)ccc21 [MEDAZEPAM]	> 30	30	16	> 30	> 30	5.2	> 30	> 30	> 30	> 30	> 30	> 30	> 30
OC[C@H]1O[C@@H](Oc2cc(O)cc(/C=C/c3ccc(O)cc3)c2)[C@H](O)[C@@H](O)[C@@H]1O [PICEID]	> 30	> 30	4.4	> 30	> 30	> 30	> 30	> 30	> 30	> 30	> 30	> 30	> 30
O=C1CC[C@@H](C(=O)N2CSC[C@H]2C(=O)O)N1 [PIDOTIMOD] ([pGlu]-[Thz]-OH)	> 30	> 30	> 30	> 30	> 30	> 30	> 30	> 30	> 30	> 30	> 30	> 30	> 30
CCC(NC(C)C)C(O)c1ccc(O)c2[nH]c(=O)ccc12 (configuration not stated) [PROCATEROL]	> 30	> 30	> 30	> 30	> 30	> 30	> 30	> 30	> 30	> 30	> 30	> 30	> 30
CCC(=O)O[C@](Cc1ccccc1)(c1ccccc1)[C@H](C)CN(C)C [PROPOXYPHENE]	11	> 10	> 30	> 30	> 10	> 30	> 30	> 10	> 30	> 10	> 10	> 30	> 10
O=c1c(O)c(-c2ccc(O)c(O)c2)oc2cc(O)cc(O)c12 [QUERCETIN]	> 30	> 10	> 30	> 30	> 10	> 10	> 30	> 10	> 30	> 10	> 10	> 30	> 30
C=CC[N+]1([C@H]2C[C@H]3[C@@H]4CC[C@H]5C[C@H](O)[C@@H](N6CCOCC6)C[C@]5(C)[C@H]4CC[C@]3(C)[C@H]2OC(C)=O)CCCC1 [ROCURONIUM]	> 30	> 30	> 30	> 30	> 30	> 30	> 30	> 30	> 30	> 30	> 30	> 30	> 30
CCCN1CCCC[C@H]1C(=O)Nc1c(C)cccc1C [ROPIVACAINE]	> 30	> 30	> 30	> 30	> 30	> 30	> 30	> 30	> 30	> 30	> 30	> 30	> 30
